Data taken from patent US20220177538A1, “CO-AGONISTS AT GLP-1 AND GIP RECEPTORS SUITABLE FOR ORAL DELIVERY” (Novo Nordisk A/S, priority 2020, published 2022).
Starred links: 1 amine or outer side, 2 acyl side, 3 side chain; linkers in the order of their positions; H or OH if unused. Non-standard residues stand in square brackets, D forms with d. Residues, ends and D or L forms follow the SMILES beside them. Groups on a side chain read outwards from the residue. *: point of attachment. C18 diacid = O=C(O)CCCCCCCCCCCCCCCCC(=O)*; γGlu = O=C(O)[C@H](CCC(=O)[*:2])N[*:1]; εLys = N[C@@H](CCCCN[*:1])C(=O)[*:2]; AEEA = NCCOCCOCC(=O)O; Aib = CC(C)(N)C(=O)O

Assay: Pharmacokinetic study in dogs after oral dosing of tablets with SNAC
Type: in vivo, Beagle dogs
Experimental: The purpose of this example is to determine the half-life and plasma exposure in vivo of the compounds of the present invention after p.o. administration to beagle dogs, i.e. the terminal half-life and concentration of test substance that reaches circulation with time. This is done in a pharmacokinetic (PK) study, where these parameters of the compound in question are determined. By terminal half-life is generally meant the period of time it takes to halve a certain plasma concentration, measured after the initial distribution phase.
The amount of SNAC in the tablet composition was 100-300 mg, the amount of magnesium stearate in the tablet composition was 7.7 mg, and the target amount of each test substance in the tablet composition was 3-4 mg.
Male beagle dogs, 1-7 years of age and weighing 9-17 kg during the study period, were included in the study. The dogs were dosed in a fasting state. The dogs were group housed in pens (12 hours light: 12 hours dark), and fed individually and restrictedly once daily with Royal Canin Medium Adult dog food (Royal Canin Products, China Branch, or Brogaarden A/S, Denmark). The dogs were used for repeated PK studies with a suitable wash-out period between successive dosing. An appropriate acclimatization period was given prior to initiation of the first PK study. All handling, dosing, and blood sampling of the animals were performed by trained and skilled staff. Before the studies, the dogs were fasted overnight and from 0 to 4 hours after dosing. The dogs were restricted to water 1 hour before dosing until 4 hours after dosing, but otherwise had ad libitum access to water during the whole period.
The compositions were administered by a single oral dosing to the dogs in groups of 6-8 dogs. […] The mouth was then closed, and 10 mL of tap water was given by syringe or gavage to facilitate swallowing of the tablet.
One blood sample was drawn before dosing, and additional samples were drawn at predefined time points after dosing for up to 240 hours, such as up to 10 hours, to adequately cover the full plasma concentration-time absorption profile of the test substance. For each blood sample time point, approximately 0.8 mL of whole blood was collected in a 1.5 mL EDTA-coated tube, which was gently turned to mix the sample with EDTA. Blood samples were collected in EDTA buffer (8 mM) and then centrifuged at 4° C. 2000 g for 10 minutes. Plasma was pipetted into Micronic tubes on dry ice, and kept at −20° C. or lower until analysis. Blood samples were taken as appropriate, for example from a venflon in the cephalic vein in the front leg for the first 2 hours and then with syringe from the jugular vein for the rest of the time points. The first few drops were allowed to drain from the venflon to avoid heparin saline from the venflon in the sample.
All blood samples were collected into test tubes containing EDTA for stabilisation and kept on ice until centrifugation. Plasma was separated from whole blood by centrifugation and the plasma was stored at −20° C. or lower until analysis.
The plasma was analysed for test substance using LC-MS (Liquid Chromatography-Mass Spectrometry) as known to the person skilled in the art. […] RP-HPLC separation was achieved using a linear gradient of 1:1 acetonitrile/methanol in 1% aqueous formic acid using either: a Phenomenex Onyx Monolithic C18 column (50×2.0 mm) and a flow rate of 0.8 mL/min at 30° C.; or an Agilent Poroshell 120 SB-C18 column (50×2.1 mm, 2.7 μm) at a flow rate of 0.4 mL/min at 60° C. The mass spectrometer was operated in either positive ionization SIM mode or positive ionization PRM mode.
For each individual animal, a plasma concentration-time profile was analysed by a non-compartmental model in Pharsight Phoenix WinNonLin ver.

[1] = oral tablet, SNAC 100 mg, test substance 3 mg, Beagle dogs, arithmetic mean

Row | SMILES | AUC/Dose (dog, in vivo, po) [kg·h/L] | Cmax/Dose (dog, in vivo, po) [kg/L] | also measured
1 | CC[C@H](C)[C@H](NC(=O)[C@H](Cc1ccccc1)NC(=O)[C@H](CCC(=O)O)NC(=O)[C@H](CCCNC(=N)N)NC(=O)[C@H](C)NC(=O)[C@H](C)NC(=O)[C@H](CCC(N)=O)NC(=O)[C@H](CCCCNC(=O)[C@@H](N)CCCCNC(=O)[C@@H](N)CCCCNC(=O)CC[C@H](NC(=O)CCCCCCCCCCCCCCCCC(=O)O)C(=O)O)NC(=O)[C@H](CCC(=O)O)NC(=O)[C@H](CC(C)C)NC(=O)[C@H](Cc1ccc(O)cc1)NC(=O)[C@@H](NC(=O)[C@H](CO)NC(=O)[C@H](Cc1ccc(O)cc1)NC(=O)[C@H](CC(=O)O)NC(=O)[C@H](CO)NC(=O)[C@@H](NC(=O)[C@H](Cc1ccccc1)NC(=O)[C@@H](NC(=O)CNC(=O)[C@H](CCC(=O)O)NC(=O)C(C)(C)NC(=O)[C@@H](N)Cc1ccc(O)cc1)[C@@H](C)O)[C@@H](C)O)[C@@H](C)CC)C(=O)N[C@@H](CCC(=O)O)C(=O)N[C@@H](Cc1c[nH]c2ccccc12)C(=O)N[C@@H](CC(C)C)C(=O)N[C@@H](CC(C)C)C(=O)N[C@@H](C)C(=O)NCC(=O)NCC(=O)N1CCC[C@H]1C(=O)N[C@@H](CO)C(=O)N[C@@H](CO)C(=O)NCC(=O)N[C@@H](C)C(=O)N1CCC[C@H]1C(=O)N1CCC[C@H]1C(=O)N1CCC[C@H]1C(=O)N[C@@H](CO)C(=O)O [Compound 9] (H-Y[Aib]EGTFTSDYSIYLEK([εLys-εLys-γGlu-C18 diacid])QAAREFIEWLLAGGPSSGAPPPS-OH) | 12.1 | 0.24 | –
2 | CC[C@H](C)[C@H](NC(=O)[C@H](Cc1ccccc1)NC(=O)[C@H](CCC(=O)O)NC(=O)[C@H](CCCNC(=N)N)NC(=O)[C@H](C)NC(=O)[C@H](C)NC(=O)[C@H](CCC(N)=O)NC(=O)[C@H](CCCCNC(=O)COCCOCCNC(=O)COCCOCCNC(=O)CC[C@H](NC(=O)CCCCCCCCCCCCCCCCC(=O)O)C(=O)O)NC(=O)[C@H](CCC(=O)O)NC(=O)[C@H](CC(C)C)NC(=O)[C@H](Cc1ccc(O)cc1)NC(=O)[C@@H](NC(=O)[C@H](CO)NC(=O)[C@H](Cc1ccc(O)cc1)NC(=O)[C@H](CC(=O)O)NC(=O)[C@H](CO)NC(=O)[C@@H](NC(=O)[C@H](Cc1ccccc1)NC(=O)[C@@H](NC(=O)CNC(=O)[C@H](CCC(=O)O)NC(=O)C(C)(C)NC(=O)[C@@H](N)Cc1ccc(O)cc1)[C@@H](C)O)[C@@H](C)O)[C@@H](C)CC)C(=O)N[C@@H](CCC(=O)O)C(=O)N[C@@H](Cc1c[nH]c2ccccc12)C(=O)N[C@@H](CC(C)C)C(=O)N[C@@H](CC(C)C)C(=O)N[C@@H](C)C(=O)NCC(=O)NCC(=O)N1CCC[C@H]1C(=O)N[C@@H](CO)C(=O)N[C@@H](CO)C(=O)NCC(=O)N[C@@H](C)C(=O)N1CCC[C@H]1C(=O)N1CCC[C@H]1C(=O)N1CCC[C@H]1C(=O)N[C@@H](CO)C(=O)O [Compound 10] (H-Y[Aib]EGTFTSDYSIYLEK([AEEA-AEEA-γGlu-C18 diacid])QAAREFIEWLLAGGPSSGAPPPS-OH) | 8.4 | 0.20 | –
3 | CC[C@H](C)[C@H](NC(=O)[C@H](Cc1ccccc1)NC(=O)[C@H](CCC(=O)O)NC(=O)[C@H](CCCNC(=N)N)NC(=O)[C@H](C)NC(=O)[C@H](C)NC(=O)[C@H](CCC(N)=O)NC(=O)[C@H](CCCCNC(=O)[C@@H](N)CCCCNC(=O)[C@@H](N)CCCCNC(=O)CC[C@H](NC(=O)CCCCCCCCCCCCCCCCC(=O)O)C(=O)O)NC(=O)[C@H](CCC(=O)O)NC(=O)[C@H](CC(C)C)NC(=O)[C@H](Cc1ccc(O)cc1)NC(=O)[C@@H](NC(=O)[C@H](CO)NC(=O)[C@H](Cc1ccc(O)cc1)NC(=O)[C@H](CC(=O)O)NC(=O)[C@H](CO)NC(=O)[C@@H](NC(=O)[C@H](Cc1ccccc1)NC(=O)[C@@H](NC(=O)CNC(=O)[C@H](CCC(=O)O)NC(=O)C(C)(C)NC(=O)[C@@H](N)Cc1ccc(O)cc1)[C@@H](C)O)[C@@H](C)O)[C@@H](C)CC)C(=O)N[C@@H](CC(N)=O)C(=O)N[C@@H](Cc1c[nH]c2ccccc12)C(=O)N[C@@H](CC(C)C)C(=O)N[C@@H](CC(C)C)C(=O)N[C@@H](C)C(=O)NCC(=O)NCC(=O)N1CCC[C@H]1C(=O)N[C@@H](CO)C(=O)N[C@@H](CO)C(=O)NCC(=O)N[C@@H](C)C(=O)N1CCC[C@H]1C(=O)N1CCC[C@H]1C(=O)N1CCC[C@H]1C(=O)N[C@@H](CO)C(=O)O [Compound 11] (H-Y[Aib]EGTFTSDYSIYLEK([εLys-εLys-γGlu-C18 diacid])QAAREFINWLLAGGPSSGAPPPS-OH) | 7.1 | 0.19 | –
4 | CC[C@H](C)[C@H](NC(=O)[C@H](Cc1ccccc1)NC(=O)[C@H](CCC(=O)O)NC(=O)[C@H](CCCNC(=N)N)NC(=O)[C@H](C)NC(=O)[C@H](C)NC(=O)[C@H](CCC(N)=O)NC(=O)[C@H](CCCCNC(=O)[C@@H](N)CCCCNC(=O)[C@@H](N)CCCCNC(=O)CC[C@H](NC(=O)CCCCCCCCCCCCCCCCC(=O)O)C(=O)O)NC(=O)[C@H](CCC(=O)O)NC(=O)[C@H](CC(C)C)NC(=O)[C@H](Cc1ccc(O)cc1)NC(=O)[C@@H](NC(=O)[C@H](CO)NC(=O)[C@H](Cc1ccc(O)cc1)NC(=O)[C@H](CC(=O)O)NC(=O)[C@H](CO)NC(=O)[C@@H](NC(=O)[C@H](Cc1ccccc1)NC(=O)[C@@H](NC(=O)CNC(=O)[C@H](CCC(=O)O)NC(=O)C(C)(C)NC(=O)[C@@H](N)Cc1ccc(O)cc1)[C@@H](C)O)[C@@H](C)O)[C@@H](C)CC)C(=O)N[C@@H](CCC(=O)O)C(=O)N[C@@H](Cc1c[nH]c2ccccc12)C(=O)N[C@@H](CC(C)C)C(=O)N[C@@H](CC(C)C)C(=O)N[C@@H](CCCNC(=N)N)C(=O)NCC(=O)NCC(=O)N1CCC[C@H]1C(=O)N[C@@H](CCC(=O)O)C(=O)N[C@@H](CO)C(=O)NCC(=O)N[C@@H](C)C(=O)N1CCC[C@H]1C(=O)N1CCC[C@H]1C(=O)N1CCC[C@H]1C(=O)N[C@@H](CO)C(=O)O [Compound 13] (H-Y[Aib]EGTFTSDYSIYLEK([εLys-εLys-γGlu-C18 diacid])QAAREFIEWLLRGGPESGAPPPS-OH) | – | – | AUC/Dose [1]: 14.8 kg·h/L; Cmax/Dose [1]: 0.29 kg/L
5 | CC[C@H](C)[C@H](NC(=O)[C@H](Cc1ccccc1)NC(=O)[C@H](CCC(=O)O)NC(=O)[C@H](CCCNC(=N)N)NC(=O)[C@H](C)NC(=O)[C@H](C)NC(=O)[C@H](CCC(N)=O)NC(=O)[C@H](CCCCNC(=O)[C@@H](N)CCCCNC(=O)[C@@H](N)CCCCNC(=O)CC[C@H](NC(=O)CCCCCCCCCCCCCCCCC(=O)O)C(=O)O)NC(=O)[C@H](CCC(=O)O)NC(=O)[C@H](CC(C)C)NC(=O)[C@H](CC(C)C)NC(=O)[C@@H](NC(=O)[C@H](CO)NC(=O)[C@H](Cc1ccc(O)cc1)NC(=O)[C@H](CC(=O)O)NC(=O)[C@H](CO)NC(=O)[C@@H](NC(=O)[C@H](Cc1ccccc1)NC(=O)[C@@H](NC(=O)CNC(=O)[C@H](CCC(=O)O)NC(=O)C(C)(C)NC(=O)[C@@H](N)Cc1ccc(O)cc1)[C@@H](C)O)[C@@H](C)O)[C@@H](C)CC)C(=O)N[C@@H](CC(N)=O)C(=O)N[C@@H](Cc1c[nH]c2ccccc12)C(=O)N[C@@H](CC(C)C)C(=O)N[C@@H](CC(C)C)C(=O)N[C@@H](C)C(=O)NCC(=O)NCC(=O)N1CCC[C@H]1C(=O)N[C@@H](CO)C(=O)N[C@@H](CO)C(=O)NCC(=O)N[C@@H](C)C(=O)N1CCC[C@H]1C(=O)N1CCC[C@H]1C(=O)N1CCC[C@H]1C(=O)N[C@@H](CO)C(=O)O [Compound 15] (H-Y[Aib]EGTFTSDYSILLEK([εLys-εLys-γGlu-C18 diacid])QAAREFINWLLAGGPSSGAPPPS-OH) | – | – | Tmax (dog, in vivo, po): 2.0 h; t1/2 (dog, in vivo, po): 46 h
